Bridge positions count the residues as written; N and C are the ends. Square brackets hold non-standard residues; d marks the D form. Ends that are not written are not given here. Peptide text beside a SMILES is read from it. S5 = C=CCCC[C@](C)(N)C(=O)O
Experiments:
proteinase K = assay: Proteinase K peptide stability assay; settings: 10 μg/mL proteinase K
Procedure: Data are from three independent replicates with standard error indicated. Scale bar indicates 50 μm.
Peptide stability assays were performed using the protocols described in Cromm et al., Protease-resistant and cell-permeable double-stapled peptides targeting the Rab8a GTPase, ACS Chemical Biology 11(8): 2375-2382 (2016). Briefly, 55 μM of peptide was incubated with 10 μg/mL proteinase K for the indicated timepoints. At the end of each time point, 50 μL of the reaction mixture were quenched in 100 μL of a 1:1 mixture acetonitrile/water+1% formic acid (FA). Samples were injected and analyzed on a Triple quad. Analysis was done using an Agilent Technologies 1200 Series attached to an Agilent Technologies 6460 Triple Quad LC/MS. Analysis was performed with a ZORBAX XDB-C18 […], 2.1×50 mm column (Agilent Technologies, Inc., Santa Clara, CA). Eluent A: H2O with 0.1% FA. Eluent B: MeCN with 0.1% FA. Purity analysis utilized the gradient as follows: (A:B, 0.3 mL/min): 95:5, 0 minutes; 95:5, 1 minute; 5:95, 5 minutes; 5:95, 8 minutes: 95:5, 8.5 minutes; 95:5, 12.5 minutes.

A549 cells = assay: Confocal microscopy of FITC-labeled peptides, cell permeability; type: cell-based; settings: FITC-labeled peptide, 100 μM, 90 minutes, A549 cells
Procedure: To determine whether this was a result of poor cell permeability by compounds N2S and N3S, fluorophore labeled versions of these peptides were generated, and confocal microscopy was used to determine the abilities of these peptides to enter cells (FIG. 5C).
Briefly, A549 cells at 9.5×10^4 cells/ml in 600 μl media were plated on 10 mm glass-bottomed, 24-well plates (Chemglass Life Sciences Cell Culture Plate, 24-Well, Fisher Scientific, Waltham, MA) and cultured for overnight at 37 °C, 5% CO2, in complete growth medium (RPMI supplemented with 10% fetal calf serum, L-glutamine, and non-essential amino acids). The next day, cells were treated with fresh, pre-warmed complete growth medium supplemented with the desired FITC-labeled peptide or DMSO vehicle control at a final concentration of 100 μM FITC labeled peptide and 1% DMSO. After 90 minutes of treatment, cells were washed three times in warm PBS to remove excess peptide from the cell surface and left in modified Krebs-Ringer buffer solution [KRBH: 134 mM NaCl. 3.5 mM KCl. 1.2 mM KH2PO4, 0.5 mM MgSO4, 1.5 mM CaCl2), 5 mM NaHCO3, 10 mM HEPES (pH 7.4)] containing Hoechst stain at 1 μg/ml. Cells were immediately analyzed under a Nikon A1 confocal microscope (Resonant). The images were taken at 20× magnification with fluorescence excitation wavelengths at 409 for the Hoechst and 488 for the FITC. Images were processed using NIS-Elements AR. Dietrich et al., Cell permeable stapled peptide inhibitor of Wnt signaling that targets 0-catenin protein-protein interactions, Cell Chemical Biology 24(8): 958-968.e5 (2017); Dougherty et al., Enhancing the cell-permeability of stapled peptides with a cyclic cell-penetrating peptide, J Medicinal Chemistry 62(22): 10098 (2019).

[1] = test system: non-small cell lung cancer (NSCLC) cells; settings: cited from earlier work
[2] = test system: MAFG-NRF2 protein complex; settings: cited from earlier work
Neh1 domain of NRF2 = settings: cited from earlier work
His-MafG = molecular target: T1, His-MafG; assay: SPR, pH 7.5
T1 chain: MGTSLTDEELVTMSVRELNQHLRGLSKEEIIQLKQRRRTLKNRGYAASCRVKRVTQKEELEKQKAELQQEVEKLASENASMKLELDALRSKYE

For Ac-DEKEKLLKEKGENDKS-NH2 [N3], the “degradation of unstapled peptide at shortest timepoint” value (proteinase K; 30 minutes) was “completely degraded”.

For `CC(=O)N[C@@H](CC(=O)O)C(=O)N[C@@H](CCC(=O)O)C(=O)N[C@@H](CCCCN)C(=O)N[C@@H](CCC(=O)O)C(=O)N[C@@H](CCCCN)C(=O)N[C@@H](CC(C)C)C(=O)N[C@@]1(C)CCCC=CCCC[C@@](C)(C(=O)N[C@@H](CCC(=O)O)C(=O)N[C@@H](CC(N)=O)C(=O)N[C@@H](CC(=O)O)C(=O)N[C@@H](CCCCN)C(=O)N[C@@H](CO)C(N)=O)NC(=O)[C@H](CCCCN)NC(=O)[C@H](CCC(=O)O)NC(=O)[C@H](CCCCN)NC1=O` [N3S] (Ac-DEKEKL[S5]KEK[S5]ENDKS-NH2; staple 7-11), the “degradation by proteinase K” value (proteinase K; for up to 24 hours, 55 μM peptide) was “no significant degradation”, the “accumulation in the nucleus” value (A549 cells) was “very little to no accumulation” and the cellular permeability (A549 cells) was “minimal”.

For Ac-IVELEQDLDHLKDEKE-NH2 [N1], the cellular permeability (A549 cells) was “poor”.

For `CC(=O)N[C@@H](CC(=O)O)C(=O)N[C@@H](CC(C)C)C(=O)N[C@@H](CC(=O)O)C(=O)N[C@@H](Cc1c[nH]cn1)C(=O)N[C@@H](CC(C)C)C(=O)N[C@@]1(C)CCCC=CCCC[C@@](C)(C(=O)N[C@@H](CCCCN)C(=O)N[C@@H](CC(C)C)C(=O)N[C@@H](CC(C)C)C(=O)N[C@@H](CCCCN)C(=O)N[C@@H](CCC(=O)O)C(=O)N[C@@H](CCCCN)C(N)=O)NC(=O)[C@H](CCCCN)NC(=O)[C@H](CCC(=O)O)NC(=O)[C@H](CC(=O)O)NC1=O` [N2S] (Ac-DLDHL[S5]DEK[S5]KLLKEK-NH2; staple 6-10), the “time at which significant degradation starts” value (proteinase K; 55 μM peptide) was 40 min and the “cellular and nuclear permeability” value (A549 cells) was “good”.

For `Cc1ccccc1C(=O)N1CCc2cc(-c3nc(NC(=O)Cc4ccc5c(c4)OCO5)sc3C)ccc21` [ML-385], the “cytotoxicity in combination with platinum-based drugs, doxorubicin or taxol” value [1] is given as “substantially enhances cytotoxicity”, the “binding of MAFG-NRF2 complex to regulatory DNA and downstream target gene expression” value [2] is given as “inhibiting downstream target gene expression” and the “binding to the Neh1 domain of NRF2” value (Neh1 domain of NRF2) is given as “binds to the Neh1 domain of NRF2”.

Molecule IVELE[S5]DLD[S5]LKDEKE (staple 6-10; also: biotin-labeled) [N1S (biotin-labeled)] has a Kd (His-MafG) of 337 nM.

From patent US20260365698A1, “STAPLED PEPTIDES FOR SENSITIZATION OF CANCER TO TREATMENT” (Purdue Research Foundation, priority 2022, published 2026)
